One data set concerns Pseudomonas aeruginosa. In words: Antimicrobial activity against Pseudomonas aeruginosa assessed as microbial growth inhibition by CLSI-protocol based broth microdilution assay. It is filed as functional. On the technique in general: Broth dilution looks for growth in wells or tubes with falling amounts of substance.
Data set [1] concerns Staphylococcus aureus. Nature of the data set: Antimicrobial activity against Staphylococcus aureus assessed as microbial growth inhibition by CLSI-protocol based broth microdilution assay. The data set is classed as functional.
Data set [2] concerns Staphylococcus aureus. Nature of the data set: Antimicrobial activity against methicillin-resistant Staphylococcus aureus assessed as microbial growth inhibition by CLSI-protocol based broth microdilution assay. It is filed as functional.
For a further data set, the system named is Bacillus anthracis. In words: Antimicrobial activity against Bacillus anthracis assessed as microbial growth inhibition by CLSI-protocol based broth microdilution assay. It is filed as functional.
Another data set relates to Escherichia coli. Nature of the data set: Antimicrobial activity against Escherichia coli assessed as microbial growth inhibition by CLSI-protocol based broth microdilution assay. It is filed as functional.
A further data set has as its system MDA-MB-231. In words: Cytotoxicty against human MDA-MB-231 cells assessed as reduction in cell viability at > 25 uM measured after 72 hrs by CellTiter-Blue cell viability assay. The data set is classed as cell-based. The following applies: mda-mb-231, 72 h. On the technique in general: The colour change of resazurin is a common sign of viable cells or microbes.

In another data set the test system is MDA-MB-435. In words: Cytotoxicty against human MDA-MB-435 cells assessed as reduction in cell viability at > 25 uM measured after 72 hrs by CellTiter-Blue cell viability assay. The data set is classed as cell-based. The following applies: mda-mb-435, 72 h.
Another data set has as its system OVCAR-3. In words: Cytotoxicty against human OVCAR-3 cells assessed as reduction in cell viability at > 25 uM measured after 72 hrs by CellTiter-Blue cell viability assay. It is filed as cell-based. The following applies: ovcar-3, 72 h.

For orientation: MIC means the lowest concentration found to suppress growth.

Converted amounts (≈) assume the structure as drawn.

In the case of `CC[C@H]1OC(=O)[C@H](C)[C@@H](O[C@H]2C[C@@](C)(OC)[C@@H](O)[C@H](C)O2)[C@H](C)[C@@H](O[C@@H]2O[C@H](C)C[C@H](N(C)C)[C@H]2O)[C@](C)(OC)C[C@@H](C)C(=O)[C@H](C)[C@@H](O)[C@]1(C)O` [CLARITHROMYCIN], the MIC in the data set with Pseudomonas aeruginosa was 125 µg/mL (≈ 167 µM); in the data set on Staphylococcus aureus [1], 0.25 µg/mL (≈ 0.334 µM); in the data set with Staphylococcus aureus [2], greater than 250 µg/mL; in the data set on Bacillus anthracis, 0.25 µg/mL (≈ 0.334 µM); in the data set on Escherichia coli it was 16 µg/mL (≈ 21.4 µM).

For the compound `CC1(C)S[C@@H]2[C@H](NC(=O)Cc3ccccc3)C(=O)N2[C@H]1C(=O)O` [PENICILLIN G], the MIC in the data set with Pseudomonas aeruginosa was greater than 250 µg/mL; in the data set with Staphylococcus aureus [1], 0.25 µg/mL (≈ 0.748 µM); in the data set with Staphylococcus aureus [2], 0.5 µg/mL (≈ 1.5 µM); in the data set on Bacillus anthracis, 0.25 µg/mL (≈ 0.748 µM); in the data set with Escherichia coli it was 16 µg/mL (≈ 47.8 µM).

With `CN[C@@H]1[C@H](O[C@H]2[C@H](O[C@H]3[C@H](O)[C@@H](O)[C@H](N=C(N)N)[C@@H](O)[C@@H]3N=C(N)N)O[C@@H](C)[C@]2(O)C=O)O[C@@H](CO)[C@H](O)[C@H]1O` [STREPTOMYCIN], the MIC in the data set with Pseudomonas aeruginosa came to 1 µg/mL (≈ 1.72 µM); in the data set with Staphylococcus aureus [1], 0.25 µg/mL (≈ 0.43 µM); with Staphylococcus aureus [2], 0.25 µg/mL (≈ 0.43 µM); with Bacillus anthracis it was 0.25 µg/mL (≈ 0.43 µM); with Escherichia coli, 0.25 µg/mL (≈ 0.43 µM).

With `CC(=C\C(=O)O)/C=C(\C)C[C@H](C)CCCC[C@H]1OC(=O)[C@@H]1CO` [ANTIBIOTIC 1233A], the MIC is 125 µg/mL (≈ 385 µM) in the data set with Pseudomonas aeruginosa; 125 µg/mL (≈ 385 µM) in the data set on Staphylococcus aureus [1]; 125 µg/mL (≈ 385 µM) in the data set on Staphylococcus aureus [2]; greater than 250 µg/mL in the data set with Bacillus anthracis; greater than 250 µg/mL in the data set with Escherichia coli.

As to `C[C@@H]1OC(=O)/C=C/[C@@H](O)CC[C@H](C)OC(=O)CC[C@@H]1O`, the minimal inhibitory concentration (MIC) in the data set with Pseudomonas aeruginosa stood at 125 µg/mL (≈ 437 µM); in the data set on Staphylococcus aureus [1], 4 µg/mL (≈ 14 µM); in the data set on Staphylococcus aureus [2], 125 µg/mL (≈ 437 µM); in the data set on Bacillus anthracis, 125 µg/mL (≈ 437 µM); in the data set on Escherichia coli, 125 µg/mL (≈ 437 µM).

`CO[C@H]1/C=C/O[C@@]2(C)Oc3c(C)c(O)c4c(O)c(c(/C=N/N5CCN(C)CC5)c(O)c4c3C2=O)NC(=O)/C(C)=C\C=C\[C@H](C)[C@H](O)[C@@H](C)[C@@H](O)[C@@H](C)[C@H](OC(C)=O)[C@@H]1C` [RIFAMPIN]: the minimum inhibitory concentration (MIC) amounted to 62.5 µg/mL (≈ 75.9 µM) with Pseudomonas aeruginosa; 0.25 µg/mL (≈ 0.304 µM) with Staphylococcus aureus [1]; 0.25 µg/mL (≈ 0.304 µM) with Staphylococcus aureus [2]; 0.25 µg/mL (≈ 0.304 µM) with Bacillus anthracis; 4 µg/mL (≈ 4.86 µM) with Escherichia coli.

On to `CC[C@H]1OC(=O)[C@H](C)[C@@H](O[C@H]2C[C@@](C)(OC)[C@@H](O)[C@H](C)O2)[C@H](C)[C@@H](O[C@@H]2O[C@H](C)C[C@H](N(C)C)[C@H]2O)[C@](C)(O)C[C@@H](C)C(=O)[C@H](C)[C@@H](O)[C@]1(C)O` [ERYTHROMYCIN], for which the MIC in the data set with Pseudomonas aeruginosa is 62.5 µg/mL (≈ 85.2 µM); in the data set on Staphylococcus aureus [1], 0.5 µg/mL (≈ 0.681 µM); in the data set on Staphylococcus aureus [2], 0.25 µg/mL (≈ 0.341 µM); with Bacillus anthracis it was 0.25 µg/mL (≈ 0.341 µM); with Escherichia coli it was 16 µg/mL (≈ 21.8 µM).

With `CC1OC(=O)/C=C/[C@@H](O)CC[C@H](C)OC(=O)CCC1=O` (stereo partly drawn), the Activity entry in the data set on MDA-MB-231, in the data set on MDA-MB-435 and in the data set with OVCAR-3 was “Non-Toxic” in each case. Also, the MIC worked out at 125 µg/mL (≈ 440 µM) with Pseudomonas aeruginosa; 1 µg/mL (≈ 3.52 µM) in the data set on Staphylococcus aureus [1]; 125 µg/mL (≈ 440 µM) in the data set with Staphylococcus aureus [2]; 62.5 µg/mL (≈ 220 µM) in the data set on Bacillus anthracis; 125 µg/mL (≈ 440 µM) in the data set on Escherichia coli.

The record behind these values is ChEMBL document CHEMBL4837189, “Opportunities and Limitations for Assigning Relative Configurations of Antibacterial Bislactones using GIAO NMR Shift Calculations” (J Nat Prod, 2021).
